Experimental data: US10370378B2, “Treatment of sleep disorders” (Evotec International GmbH, priority 2007, dated 2019)

Legend:
[1] = Pharmacokinetic profile in non-elderly adults and the elderly (FIG. 16); format: in vivo, human; details: free base
Excerpt: FIG. 16 is a chart showing an exemplary pharmacokinetic (PK) profile of the compound of formula (II) (free base) in both the non-elderly adults and the elderly. Mean dose adjusted plasma concentrations of the compound of formula (II) (free base) in non-elderly (open circle) and elderly males (open square) and M1 (active metabolite of the compound of formula (II) (free base)) in non-elderly adults (filled circle) and the elderly (filled square).
As a result, the inventors determined that the same or similar doses of the compound of formula (II), which are effective for non-elderly adults (18-64 years of age), could be effective for the elderly.

[2] = tested on: primary insomnia, subjects at least 65 years old; experiment: Example 4: placebo-controlled parallel group study, 7 nights dosing, elderly subjects with primary insomnia; format: in vivo, human; details: for Number of subjects with any event (%): number (percent); for Adjusted mean LPS / Adjusted mean TST / Adjusted mean WASO: PSG, average of nights 1, 6 and 7; for LPS % change from placebo / WASO % change from placebo: decrease; for TST % change from placebo: increase
Experimental: A randomized, double-blind, placebo-controlled parallel group design was used to assess the hypnotic efficacy of 1.5 mg and 2.5 mg doses of the compound of formula (II) following 7 nights dosing using 149 subjects. The study was conducted in 20 sleep laboratories in the United States using both objective and subjective measures. PSG data was collected on nights 1, 6 and 7 and results are based on the mean data from these three nights. The compound of formula (II) was administered in free base form as a powder in a capsule.
The subjects were males and females at least 65 years old with a documented diagnosis of primary insomnia (DSM-IV criteria). These subjects' typical bed time was between 9 pm and 1 am with at least 7 hours in bed. These subjects reported five nights or more in seven days with TST of not more than 6.5 hours with at least 7 hours in bed. […] On screening using PSG for 2 nights, mean TST was 240-420 minutes. Mean latency in Multiple Sleep Latency Test (MSLT) was at least 5.5 minutes and not more than 14 minutes.
PSG was used to obtain TST (average of nights 1, 6 and 7). The daytime function (day 8) was measured using Psychomotor Vigilance Task (PVT), MSLT (MSLT Clinical Guidelines; Sleep, 1(3): 260-276 (1992)), Karolinska Sleepiness Scale (KSS); and objective measures Rey Auditory Verbal Learning Test (RAVLT) (day 8) (assessed 30±10 minutes after lights-on). Sleep architecture, subject reported sleep variables and categorical rating of sleep quality and safety endpoints including the Benzodiazepine Withdrawal Questionnaire were also determined.

[3] = 1.5 mg and 2.5 mg, across 7 nights

Compound: CN(C)Cc1nc(-c2ncn3c2CN(C)C(=O)c2c(Cl)cccc2-3)no1 [compound of formula (II), 7-chloro-3-(5-dimethylaminomethyl-[1,2,4]oxadiazol-3-yl)-5-methyl-4,5-dihydro-imidazo[1,5-a][1,4]benzodiazepine-6-one]
- pharmacokinetic (PK) profile in non-elderly versus elderly [1]: similar
- increase of mean TST compared to placebo ([2]; 1.5 mg): 30.9 min
- Dizziness, number of subjects (%) ([2]; 1.5 mg (n = 53)): 3 (5.7)
- Headache, number of subjects (%) ([2]; 1.5 mg (n = 53)): 5 (9.4)
- Somnolence, number of subjects (%) ([2]; 1.5 mg (n = 53)): 1 (1.9)
- Number of subjects with any event (%) ([2]; 1.5 mg (n = 53)): 15 (28.3)
- safety and tolerability ([2]; 1.5 mg and 2.5 mg doses, elderly): safe and well-tolerated
- sTST [2, 3]: significant increase
- sWASO [2, 3]: significant decrease
- subject-reported sleep onset latency [2, 3]: significant reduction
- Adjusted mean LPS ([2]; 1.5 mg): 30.5 min
- Adjusted mean TST ([2]; 1.5 mg): 369.5 min
- Adjusted mean WASO ([2]; 1.5 mg): 86.2 min
- LPS % change from placebo ([2]; 1.5 mg): 34%
- WASO % change from placebo ([2]; 1.5 mg): 15%
- total wake time hour by hour ([2]; 1.5 mg, each hour up to hour 6): significantly reduced
- TST % change from placebo ([2]; 1.5 mg): 9%
- WASO in the second half of the night (5-8 hours after lights out) ([2]; 2.5 mg): significant decrease
- increase of mean TST compared to placebo ([2]; 2.5 mg): 56.4 min
- Dizziness, number of subjects (%) ([2]; 2.5 mg (n = 52)): 5 (9.6)
- Headache, number of subjects (%) ([2]; 2.5 mg (n = 52)): 3 (5.8)
- Somnolence, number of subjects (%) ([2]; 2.5 mg (n = 52)): 6 (11.5)
- Number of subjects with any event (%) ([2]; 2.5 mg (n = 52)): 19 (36.5)
- Adjusted mean LPS ([2]; 2.5 mg): 26.5 min
- Adjusted mean TST ([2]; 2.5 mg): 395 min
- Adjusted mean WASO ([2]; 2.5 mg): 65.3 min
- LPS % change from placebo ([2]; 2.5 mg): 43%
- WASO % change from placebo ([2]; 2.5 mg): 36%
- TWT hour by hour ([2]; 2.5 mg, every hour except hour 7): significantly reduced
- TST % change from placebo ([2]; 2.5 mg): 17%
- residual sedation, subject reported ([2]; 30 minutes post wake time (approximately 9 hours post dose)): no residual sedation
- KSS (subjective) versus placebo ([2]; day 8): no significant difference
- MSLT average sleep latency over all timepoints (2, 4, 6, 8 & 10 hours post wake time) ([2]; day 8, daytime function): increased
- Benzodiazepine Withdrawal Questionnaire versus placebo ([2]; either dose): No significant difference
- PVT or RAVLT versus placebo ([2]; either dose, day 8): no significant differences
- sleep architecture (PSG) ([2]; human, in vivo): generally preserved sleep architecture
- subjective sleep quality ([2]; over all 7 nights of dosing): sustained improvement
